From ChEMBL document CHEMBL5584301, “Radioactive ADME Demonstrates ARV-110's High Druggability Despite Low Oral Bioavailability” (J Med Chem, 2024)
Blank lines part the entries; values can stand above or below the molecule they belong to. Calls of active or inactive are those of the source. No cut-off for these calls is given here.

Tests used:
[1] = Ratio of drug exposure in pigmented skin to plasma of C57BL/6J mouse at 0.5 mg/kg, po; format: ADME, organism-based; details: pigmented skin and plasma
[2] = Cmax in BALB/c nude mouse at 0.5 mg/kg, po measured at 48 hrs; format: ADME, organism-based; details: in vivo
[3] = Cmax in C57BL/6J mouse eye at 0.5 mg/kg, po measured at 168 hrs by QWBA analysis; format: ADME, organism-based; details: in vivo
[4] = Drug metabolism in Long-Evans rat at 45 mg/kg, po by UHPLC-HR-MS analysis; format: ADME, organism-based; details: in vivo
[5] = Drug recovery in female Sprague-Dawley rat feces at 45 mg/kg, po measured upto 48 hrs by UHPLC analysis; format: ADME, organism-based; details: faeces, read-out: Drug recovery
[6] = Drug recovery in male Sprague-Dawley rat bile duct at 45 mg/kg, po measured upto 72 hrs by UHPLC analysis; format: ADME, organism-based; details: read-out: Drug recovery
[7] = Drug recovery in male Sprague-Dawley rat urine at 45 mg/kg, po measured upto 96 hrs by UHPLC analysis; format: ADME, organism-based; details: read-out: Drug recovery
[8] = Drug recovery in male Sprague-Dawley rat feces at 45 mg/kg, po measured upto 48 hrs by UHPLC analysis; format: ADME, organism-based; details: faeces, read-out: Drug recovery
[9] = Ratio of drug exposure in tumor to plasma of BALB/c mouse at 0.5 mg/kg, po; format: ADME, organism-based; details: tumor and plasma
[10] = Drug distribution in BALB/c mouse digestive tract at 0.5 mg/kg, po by QWBA analysis; format: ADME, organism-based; details: in vivo
[11] = Drug distribution in BALB/c mouse liver at 0.5 mg/kg, po by QWBA analysis; format: ADME, organism-based; details: in vivo
[12] = Drug distribution in BALB/c mouse harderian gland at 0.5 mg/kg, po by QWBA analysis; format: ADME, organism-based; details: in vivo
[13] = Drug recovery in female Sprague-Dawley rat bile duct at 45 mg/kg, po measured upto 72 hrs by UHPLC analysis; format: ADME, organism-based; details: read-out: Drug recovery
[14] = Drug recovery in female Sprague-Dawley rat urine at 45 mg/kg, po measured upto 96 hrs by UHPLC analysis; format: ADME, organism-based; details: read-out: Drug recovery
[15] = Drug distribution in BALB/c mouse kidney at 0.5 mg/kg, po by QWBA analysis; format: ADME, organism-based; details: in vivo
[16] = Cmax in BALB/c nude mouse at 0.5 mg/kg, po measured at 6 hrs; format: ADME, organism-based; details: in vivo
[17] = Cmax in C57BL/6J mouse harderian gland at 0.5 mg/kg, po measured at 48 hrs by QWBA analysis; format: ADME, organism-based; details: in vivo
[18] = Cmax in C57BL/6J mouse uveal tract at 0.5 mg/kg, po measured at 168 hrs by QWBA analysis; format: ADME, organism-based; details: in vivo
[19] = Drug recovery in Long-Evans rat eye at 45 mg/kg, po measured for 72 hrs by UHPLC analysis; format: ADME, organism-based; details: in vivo
[20] = AUC (0 to t ) in C57BL/6J mouse uveal tract at 0.5 mg/kg, po measured at 168 hrs by QWBA analysis; format: ADME, organism-based; details: in vivo
[21] = Oral bioavailability in Sprague-Dawley rat at 22.5 mg/kg by LSC analysis; format: ADME, organism-based; details: in vivo
[22] = system: Melanin; assay: Binding affinity to Melanin (unknown origin) assessed as binding ratio at 10 microg/ml measured for 2 hrs; details: dose 10.0 µg/ml
[23] = Drug recovery in Sprague-Dawley rat bile duct at 45 mg/kg, po measured over 72 hrs by UHPLC analysis; format: ADME, organism-based; details: read-out: Drug recovery
[24] = system: Melanin; assay: Binding affinity to Melanin (unknown origin) assessed as binding ratio at 0.1 microg/ml measured for 2 hrs; details: dose 0.1 µg/ml
[25] = AUC (0 to infinity) in Sprague-Dawley rat at 22.5 mg/kg, po with free access to food and water before administration by LSC analysis; format: ADME, organism-based; details: in vivo
[26] = Tmax in Sprague-Dawley rat at 22.5 mg/kg, po by LSC analysis; format: ADME, organism-based; details: in vivo
[27] = Oral bioavailability in Sprague-Dawley rat at 22.5 mg/kg with free access to food and water before administration by LSC analysis; format: ADME, organism-based; details: in vivo
[28] = Drug recovery in Sprague-Dawley rat urine at 45 mg/kg, po measured over 168 hrs by UHPLC analysis; format: ADME, organism-based; details: read-out: Drug recovery
[29] = Cmax in Sprague-Dawley rat at 22.5 mg/kg, po with free access to food and water before administration by LSC analysis; format: ADME, organism-based; details: in vivo
[30] = Half life in Sprague-Dawley rat at 22.5 mg/kg, po by LSC analysis; format: ADME, organism-based; details: in vivo
[31] = AUC (0 to t) in Sprague-Dawley rat at 22.5 mg/kg, po by LSC analysis; format: ADME, organism-based; details: in vivo
[32] = Cmax in Sprague-Dawley rat at 45 mg/kg, po by LSC analysis; format: ADME, organism-based; details: in vivo
[33] = Stability in phosphate buffer at 1 uM; format: physicochemical
[34] = Cmax in Sprague-Dawley rat at 22.5 mg/kg, po by LSC analysis; format: ADME, organism-based; details: in vivo
[35] = AUC (0 to t) in Sprague-Dawley rat at 22.5 mg/kg, po with free access to food and water before administration by LSC analysis; format: ADME, organism-based; details: in vivo
[36] = system: Melanin; assay: Binding affinity to Melanin (unknown origin) assessed as binding ratio at 1 microg/ml measured for 2 hrs; details: dose 1.0 µg/ml
[37] = Tmax in Sprague-Dawley rat at 22.5 mg/kg, po with free access to food and water before administration by LSC analysis; format: ADME, organism-based; details: in vivo
[38] = AUC (0 to infinity) in Sprague-Dawley rat at 22.5 mg/kg, po by LSC analysis; format: ADME, organism-based; details: in vivo
[39] = Oral bioavailability in Sprague-Dawley rat at 45 mg/kg by LSC analysis; format: ADME, organism-based; details: in vivo
[40] = Half life in Sprague-Dawley rat at 22.5 mg/kg, po with free access to food and water before administration by LSC analysis; format: ADME, organism-based; details: in vivo
[41] = Drug recovery in Sprague-Dawley rat feces at 45 mg/kg, po measured over 168 hrs by UHPLC analysis; format: ADME, organism-based; details: faeces, read-out: Drug recovery
[42] = AUC (0 to t) in Sprague-Dawley rat at 45 mg/kg, po by LSC analysis; format: ADME, organism-based; details: in vivo
[43] = Stability in rat plasma measured after 2 hrs by LC-MS/MS analysis; format: ADME, cell-free
[44] = Half life in Sprague-Dawley rat at 45 mg/kg, po by LSC analysis; format: ADME, organism-based; details: in vivo
[45] = AUC (0 to infinity) in Sprague-Dawley rat at 45 mg/kg, po by LSC analysis; format: ADME, organism-based; details: in vivo
[46] = Tmax in Sprague-Dawley rat at 45 mg/kg, po by LSC analysis; format: ADME, organism-based; details: in vivo
[47] = Stability in rat plasma assessed as drug degradation measured after 2 hrs by LC-MS/MS analysis; format: ADME, cell-free
[48] = Volume of distribution at steady state in Sprague-Dawley rat at 22.5 mg/kg, iv by LSC analysis; format: ADME, organism-based; details: in vivo
[49] = Stability in rat plasma assessed as drug hydrolysis measured after 2 hrs by LC-MS/MS analysis; format: ADME, cell-free
[50] = system: DU-145; assay: Antitumor activity against human DU-145 cells xenografted in BALB/c nude mouse assessed as reduction in tumor size at 0.5 mg/kg measured daily for 14 days; format: functional, organism-based; details: time 14.0 day

Kp [1]: 1.52 | Cmax [2]: 944 ngequiv/g | Cmax [3]: 3185 ngequiv/g | Drug metabolism [4]: Metabolite_Detected | dose excreted at 48 h [5]: 88% | dose excreted at 72 h [6]: 4.55% | dose excreted at 96 h [7]: 2.51% | dose excreted at 48 h [8]: 92% | Kp [9]: 3.99 | Drug uptake [10]: Active | Drug uptake [11]: Active | Drug uptake [12]: Active | dose excreted at 72 h [13]: 4.49% | dose excreted at 96 h [14]: 4.25% | Drug uptake [15]: Active | Cmax [16]: 3165 ngequiv/g | Cmax [17]: 2950 ngequiv/g | Cmax [18]: 9621 ngequiv/g | Drug recovery [19]: 55.17% | AUCt [20]: 2717032 ng·h/g
SMILES: N#Cc1ccc(O[C@H]2CC[C@H](NC(=O)c3ccc(N4CCC(CN5CCN(c6cc7c(cc6F)[14C](=O)N(C6CCC(=O)NC6=O)[14C]7=O)CC5)CC4)nn3)CC2)cc1Cl (stereo not given in full)

F [21]: 10.75% | inhibition [22]: 82.2% | dose excreted at 72 h [23]: 4.54% | inhibition [24]: 91% | AUC [25]: 23274 ng·h/mL | Tmax [26]: 7 h | F [27]: 20.97% | dose excreted at 168 h [28]: 3.38% | Cmax [29]: 842 ng/mL | t1/2 [30]: 15.4 h | AUCt [31]: 11740 ng·h/mL | Cmax [32]: 490 ng/mL | Stability [33]: Stable | Cmax [34]: 448 ng/mL | AUCt [35]: 23022 ng·h/mL | inhibition [36]: 90.1% | Tmax [37]: 8.5 h | AUC [38]: 11881 ng·h/mL | F [39]: 5.62% | t1/2 [40]: 14.8 h | dose excreted at 168 h [41]: 90% | AUCt [42]: 12345 ng·h/mL | Stability [43]: Unstable | t1/2 [44]: 15.9 h | AUC [45]: 12515 ng·h/mL | Tmax [46]: 5.5 h | Stability [47]: Stable | Vdss [48]: 2.04 L/kg | Stability [49]: Stable
SMILES: N#Cc1ccc(O[C@H]2CC[C@H](NC(=O)c3ccc(N4CCC(CN5CCN(c6cc7c(cc6F)C(=O)N(C6CCC(=O)NC6=O)C7=O)CC5)CC4)nn3)CC2)cc1Cl (stereo not given in full) [BAVDEGALUTAMIDE]
Activity [50]: Active
